In patent US6521283B1, “Non-thrombogenic surfaces” (Biocompatibles Limited, priority 1990, dated 2003):
Several values for one entry are separate records, joined by “and”; a condition that tells them apart may be missing. Equal values may be shown once. Marks after values point to notes of the source that are not given here.

Tests used:
[1] = system: blood cells / platelet cells; experiment: haemocompatibility of suture materials by scanning electron microscopy after incubation in whole blood; format: cell-based, human; details: braided polyester yarn suture material coated at 10 mg/ml (Example 3)
Procedure: Samples of the braided material treated according to Example 3 were incubated in fresh, citrated whole blood as described in Example 10 above. After removal from the blood these materials were washed using PBS and prepared for scanning electron microscopy by fixing in an aliquot of the following solution:
83 ml 0.15 M PBS (pH 7.4) 15 ml saturated picric acid
The samples were washed in PBS and dehydrated using 70% ethanol, followed by absolute ethanol. Finally samples were sputter coated with gold (at 30 mA for 3 minutes) and observed under the electron microscope.

platelets = experiment: quantitative platelet adhesion test (ATP luminometry) in fresh citrated whole human blood; format: cell-based
Procedure: A quantitative platelet adhesion test was carried out by immersing samples in fresh citrated whole human blood at room temperature for 30 minutes. Tubing samples were prepared in 3 cm lengths sealed at both ends (the blood being introduced into the sample by hypodermic needle), and constantly mixed using a spiral mixer (tests were carried out in triplicate). Blood used in this assay was obtained using the double syringe method.
After incubation the samples were washed in isotonic phosphate buffered saline (PBS) and extracted into 1% trichloro acetate (TCA) (w/v) in 2 mM ethylene diamine tetraacetic acid (EDTA) to liberate ATP from any platelets adhering to the walls of the tubing.
The amount of ATP present in the extractant was estimated using the LKB Pharmacia ATP assay kit and a luminometer.
The number of platelets adhering to the samples was estimated from a standard curve using ATP levels associated with a known number of platelets.

recalcified blood = experiment: in-use simulation: recalcified blood incubated in catheter segments, clot formation; parameters: species or system human; details: 15 cm catheter segment, frosted region, coated according to Example 2, 37° C., 150 minutes
Procedure: Three 15 cm segments of catheter (frosted region) coated according to Example 2 were prepared with the ends sealed using Eppendorf tubes. 40 ml of blood was collected from an adult volunteer into tri-sodium citrate (32 g/l) using the double syringe technique (the first 5 ml were discarded). 2 ml of 0.025 M calcium chloride in 0.15 M sodium chloride was added to 10 ml of citrated blood. 4 ml of recalcified blood was then added to each of the three catheter segments. The tubes were placed in a 37° C. incubator for 150 minutes. The samples were turned every 30 minutes. After this incubation the blood was drained from each of the catheters. They were then rinsed using PBS to remove any loosely bound material.

[2] = wettability: static contact angles with distilled water drops; format: physicochemical; details: for Contact angles (°) (average) / Contact angles (°), single readings: distilled water drops after 5 minutes
Procedure: The wettability of materials coated with DPPC according to the preceding examples was assessed by measurement of static contact angles using distilled water drops after 5 minutes in contact with the surface.

[3] = FEP IV catheters treated at 10 mg/ml in ethanol (Example 8)
[4] = PE (polyethylene) treated at 10 mg/ml
[5] = PVC thoracic drain catheter, clear region, coated at 10 mg/ml (Example 2)
[6] = PVC thoracic drain catheter, frosted region, coated at 10 mg/ml (Example 2)
[7] = hard PVC tubing coated with 5 mg/ml solution (Example 1)
[8] = hard PVC tubing coated with 10 mg/ml solution (Example 1)
[9] = polypropylene hollow fibre membrane treated at 2 mg/ml (Example 7)
[10] = polypropylene hollow fibre membrane treated at 10 mg/ml (Example 7)
[11] = polypropylene hollow fibre membrane treated at 10 mg/ml (Example 7), includes outlier
[12] = polystyrene petri dish spin-coated at 10 mg/ml (Example 4)
[13] = soft PVC tubing coated with 5 mg/ml solution (Example 1)
[14] = soft PVC tubing coated with 10 mg/ml solution (Example 1)
[15] = PVC thoracic drain catheter coated as Ex. 2 at 10 mg/ml
[16] = polyethylene coated as Ex. 5 at 10 mg/ml
[17] = soft PVC tubing coated as Ex. 1

SMILES: CCCCCCCCCCCCCCCC(=O)OC[C@H](COP(=O)([O-])OCC[N+](C)(C)C)OC(=O)CCCCCCCCCCCCCCC [DPPC, dipalmitoyl phosphatidyl choline]
- activation of platelet cells (electron microscopy) [1]: platelet cells are not activated
- adhesion of blood cells (electron microscopy) [1]: adhere fewer blood cells than untreated materials
- thrombogenicity vs untreated braided yarns [1]: appear less thrombogenic
- % Reduction (platelet adhesion vs untreated catheters) (platelets; [3]): 65%
- platelets adhered, DONOR 1 (platelets; [3]): 1.89 platelets ×10^6 per 5 cm length of catheter
- platelets adhered, DONOR 2 (platelets; [3]): 1.24 platelets ×10^6 per 5 cm length of catheter
- platelets adhered, DONOR 3 (platelets; [3]): 5.84 platelets ×10^6 per 5 cm length of catheter
- platelets adhered, X̄ (mean of donors) (platelets; [3]): 2.99 platelets ×10^6 per 5 cm length of catheter
- % Reduction (platelet adhesion vs uncoated PE) (platelets; [4]): 94%
- platelets adhered, DONOR 1 (platelets; [4]): 1.58 no. of platelets ×10^6 per 22 mm^2 area of material
- platelets adhered, DONOR 2 (platelets; [4]): 3.76 no. of platelets ×10^6 per 22 mm^2 area of material
- platelets adhered, DONOR 3 (platelets; [4]): 1.72 no. of platelets ×10^6 per 22 mm^2 area of material
- platelets adhered, X̄ (mean of donors) (platelets; [4]): 2.35 no. of platelets ×10^6 per 22 mm^2 area of material
- % Reduction (platelet adhesion vs uncoated) (platelets; [5]): 97%
- platelets adhered, DONOR 1 (platelets; [5]): 0.53 platelets adhered ×10^6 per 3 cm lengths of catheters
- platelets adhered, DONOR 2 (platelets; [5]): 1.38 platelets adhered ×10^6 per 3 cm lengths of catheters
- platelets adhered, DONOR 3 (platelets; [5]): 0.60 platelets adhered ×10^6 per 3 cm lengths of catheters
- platelets adhered, X̄ (mean of donors) (platelets; [5]): 0.84 platelets adhered ×10^6 per 3 cm lengths of catheters
- % Reduction (platelet adhesion vs uncoated) (platelets; [6]): 87%
- platelets adhered, DONOR 1 (platelets; [6]): 0.88 platelets adhered ×10^6 per 3 cm lengths of catheters
- platelets adhered, DONOR 2 (platelets; [6]): 1.05 platelets adhered ×10^6 per 3 cm lengths of catheters
- platelets adhered, DONOR 3 (platelets; [6]): 0.59 platelets adhered ×10^6 per 3 cm lengths of catheters
- platelets adhered, X̄ (mean of donors) (platelets; [6]): 0.84 platelets adhered ×10^6 per 3 cm lengths of catheters
- platelet adhesion to coated PVC / thrombogenicity of PVC tubing (platelets; PVC tubing coated according to Example 1): large reduction in the thrombogenicity
- % Reduction (platelet adhesion vs uncoated control) (platelets; [7]): 94%
- platelets adhered, DONOR 2 (platelets; [7]): 0.13 no. of platelets ×10^6 per 3 cm lengths of tubing
- platelets adhered, DONOR 3 (platelets; [7]): 0.19 no. of platelets ×10^6 per 3 cm lengths of tubing
- platelets adhered, X̄ (mean of donors) (platelets; [7]): 0.35 no. of platelets ×10^6 per 3 cm lengths of tubing
- platelets adhered, DONOR 1 (platelets; hard PVC tubing coated with 5 mg/ml solution (Example 1), 30 min, room temperature): 0.72 no. of platelets ×10^6 per 3 cm lengths of tubing
- % Reduction (platelet adhesion vs uncoated control) (platelets; [8]): 97%
- platelets adhered, DONOR 1 (platelets; [8]): 0.51 no. of platelets ×10^6 per 3 cm lengths of tubing
- platelets adhered, DONOR 2 (platelets; [8]): 0.14 no. of platelets ×10^6 per 3 cm lengths of tubing
- platelets adhered, DONOR 3 (platelets; [8]): 0.10 no. of platelets ×10^6 per 3 cm lengths of tubing
- platelets adhered, X̄ (mean of donors) (platelets; [8]): 0.25 no. of platelets ×10^6 per 3 cm lengths of tubing
- % Reduction (platelet adhesion vs untreated) (platelets; [9]): 91%
- platelets adhered, DONOR 1 (platelets; [9]): 0.91 no. of platelets ×10^6 per 20 cm length of fibre
- platelets adhered, DONOR 2 (platelets; [9]): 0.89 no. of platelets ×10^6 per 20 cm length of fibre
- platelets adhered, DONOR 3 (platelets; [9]): 0.53 no. of platelets ×10^6 per 20 cm length of fibre
- platelets adhered, X̄ (mean of donors) (platelets; [9]): 0.78 no. of platelets ×10^6 per 20 cm length of fibre
- platelets adhered, DONOR 1 (platelets; [10]): 0.41 no. of platelets ×10^6 per 20 cm length of fibre
- platelets adhered, DONOR 3 (platelets; [10]): 0.52 no. of platelets ×10^6 per 20 cm length of fibre
- % Reduction (platelet adhesion vs untreated) (platelets; [11]): 56%
- platelets adhered, X̄ (mean of donors) (platelets; [11]): 3.67 no. of platelets ×10^6 per 20 cm length of fibre
- platelets adhered, DONOR 2 (platelets; polypropylene hollow fibre membrane treated at 10 mg/ml (Example 7), result thought to be an outlier): 10.08* no. of platelets ×10^6 per 20 cm length of fibre
- % Reduction (platelet adhesion vs uncoated) (platelets; [12]): 92%
- platelets adhered, DONOR 1 (platelets; [12]): 5.54 no. of platelets ×10^6 adhered per petri dish (50 mm diameter)
- platelets adhered, DONOR 2 (platelets; [12]): 3.55 no. of platelets ×10^6 adhered per petri dish (50 mm diameter)
- platelets adhered, DONOR 3 (platelets; [12]): 3.08 no. of platelets ×10^6 adhered per petri dish (50 mm diameter)
- platelets adhered, X̄ (mean of donors) (platelets; [12]): 4.06 no. of platelets ×10^6 adhered per petri dish (50 mm diameter)
- % Reduction (platelet adhesion vs uncoated control) (platelets; [13]): 96%
- platelets adhered, DONOR 1 (platelets; [13]): 0.76 no. of platelets ×10^6 per 3 cm lengths of tubing
- platelets adhered, DONOR 2 (platelets; [13]): 0.72 no. of platelets ×10^6 per 3 cm lengths of tubing
- platelets adhered, DONOR 3 (platelets; [13]): 0.30 no. of platelets ×10^6 per 3 cm lengths of tubing
- platelets adhered, X̄ (mean of donors) (platelets; [13]): 0.59 no. of platelets ×10^6 per 3 cm lengths of tubing
- % Reduction (platelet adhesion vs uncoated control) (platelets; [14]): 90%
- platelets adhered, DONOR 1 (platelets; [14]): 0.97 no. of platelets ×10^6 per 3 cm lengths of tubing
- platelets adhered, DONOR 2 (platelets; [14]): 1.89 no. of platelets ×10^6 per 3 cm lengths of tubing
- platelets adhered, DONOR 3 (platelets; [14]): 1.25 no. of platelets ×10^6 per 3 cm lengths of tubing
- platelets adhered, X̄ (mean of donors) (platelets; [14]): 1.37 no. of platelets ×10^6 per 3 cm lengths of tubing
- drainage of blood and clot remaining in catheter (recalcified blood): blood drained easily. One small clot remained attached to the surface
- Contact angles (°) (average) [2, 15]: 24 °
- Contact angles (°), single readings [2, 15]: 26 ° and 19 °
- Conclusion (wettability) [2, 16]: Wettable surface
- Contact angles (°) (average) [2, 16]: 15 °
- Contact angles (°), single readings [2, 16]: 12 ° and 21 °
- Conclusion (wettability) [2, 17]: Wettable surface
- Contact angles (°) (average) [2, 17]: 8 °
- Contact angles (°), single readings [2, 17]: 9 ° and < 5 ° and 10 °
